These results are taken from US11059832B2, “HPK1 inhibitors and methods of using same” (University Health Network, priority 2015, dated 2021).

Assay [1] deals with T1, LCK (Homo sapiens, UniProt P06239).
T1 construct: purchased Invitrogen P3043
The assay is described as follows: LCK inhibition, FRET based Z'-LYTE Kinase Assay. It counts as biochemical. Conditions: 25 nM LCK, 180 μM ATP; read-out: IC50 Range Lck. As to the method:
FLT3 and LCK compound inhibition were determined using FRET based Z′-LYTE Kinase Assay Kit with Tyrosine 2 peptide as the substrate (Invitrogen cat #PV3191). […] The % inhibition values were determined according to the manufacturer's directions and IC50 values were obtained using a non-linear 4 point logistic curve fit (XLfit4, IDBS).

Assay [2] has as its system ERK1/2 T202/Y204 phosphorylation in α-CD3 stimulated Jurkat E6.1 cells. Nature of the assay: In vitro phosphorylation assay, ERK1/2 T202/Y204 (immunoblot). The assay is classed as cell-based. Conditions: Homo sapiens, 4 h pretreatment, read-out: ERK1/2 T202/Y204 Phosphorylation Onset Inhibition. As to the method:
Jurkat E6.1 cells were obtained from American Type Culture Collection (ATCC, Manassas, Va.), and maintained according to the supplier's instructions. Cells were washed three times and starved in RPMI 1640 medium supplemented with 0.5% fetal calf serum for 18 h at 37° C. Serum starved cells were pretreated with the indicated concentration of inhibitor for 4 hours before stimulation with 10 μg/ml α-CD3 antibody (BioLegend, Inc., San Diego, Calif.) for 10 min at 37° C. The cells were washed once in phosphate-buffered saline (pH 7.4) containing 10 mm sodium pyrophosphate, 10 mm sodium fluoride, 10 mm EDTA, and 1 mm sodium orthovanadate. Protein lysates were prepared using ice-cold radioimmunoprecipitation assay (RIPA) lysis buffer. A total of 100 μg of cell lysate was loaded onto Bis-Tris gels (Life Technologies, Carlsbad, Calif.) with full-range molecular weight marker as a size reference, and resolved by SDS-PAGE electrophoresis. Proteins were transferred to PVDF membrane (Millipore, Billerica, Mass.), blocked and probed with antibodies for phospho-SLP-76 (Ser376) (rabbit polyclonal #13177; Cell Signaling Technology Inc., Danvers, Mass.), SLP-76 (rabbit polyclonal #4958; Cell Signaling Technology Inc., Danvers, Mass.), phospho-ERK (mouse monoclonal sc-7383; Santa Cruz Biotechnology Inc., Santa Cruz, Calif.) and ERK1/2 (rabbit polyclonal 06-182; Millipore, Billerica, Mass.). Secondary antibodies were diluted 1 in 15,000 and incubated for 1 h at rt. Protein bands were visualized and quantified using Odyssey near infrared imager (LI-COR, Lincoln, Nebr.).
Table 2 below lists effects of representative compounds of the present invention against SLP-76 serine 376 phosphorylation and ERK1/2 T202/Y204 phosphorylation in α-CD3 stimulated Jurkat E6.1 cells.
In general terms: Immunoblotting shows a protein as a band on a membrane.

In assay [3] the target is T2, human HPK1 (MAP4K1) (Homo sapiens, UniProt Q92918).
T2 construct: human HPK1 (aa 1-346); purchased Invitrogen PV6355
T2 sequence (Q92918 1-346): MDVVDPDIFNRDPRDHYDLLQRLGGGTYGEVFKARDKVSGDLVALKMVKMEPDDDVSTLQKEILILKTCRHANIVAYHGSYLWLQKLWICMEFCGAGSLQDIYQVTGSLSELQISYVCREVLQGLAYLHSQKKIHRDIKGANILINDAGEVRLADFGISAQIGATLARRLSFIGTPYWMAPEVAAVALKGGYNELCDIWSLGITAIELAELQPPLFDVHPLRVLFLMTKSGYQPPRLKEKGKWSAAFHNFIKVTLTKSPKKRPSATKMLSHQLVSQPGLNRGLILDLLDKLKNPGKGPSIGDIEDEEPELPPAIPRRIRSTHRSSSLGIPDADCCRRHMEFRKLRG
Nature of the assay: HPK1 inhibition assay (indirect ELISA). The assay is classed as biochemical. Conditions: GST-HPK1 0.6 nM, 12 μM ATP; read-out: IC50 Range HPK1. Summed up: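 GST-tagged human HPK1 (aa 1-346, 0.6 nM) phosphorylated MBP-coated wells with 12 μM ATP in MOPS pH 7.2/Mg2+ buffer for 30 min after 15-min compound preincubation; phospho-Thr detected by antibody ELISA with TMB, 450 nm. Tested at 10 μM or 10-point titration (typically 50-0.1 μM); IC50 by 4-parameter logistic fit.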
For orientation: ELISA stands for enzyme-linked immunosorbent assay.

T1 sequence (P06239 whole entry, species assumed): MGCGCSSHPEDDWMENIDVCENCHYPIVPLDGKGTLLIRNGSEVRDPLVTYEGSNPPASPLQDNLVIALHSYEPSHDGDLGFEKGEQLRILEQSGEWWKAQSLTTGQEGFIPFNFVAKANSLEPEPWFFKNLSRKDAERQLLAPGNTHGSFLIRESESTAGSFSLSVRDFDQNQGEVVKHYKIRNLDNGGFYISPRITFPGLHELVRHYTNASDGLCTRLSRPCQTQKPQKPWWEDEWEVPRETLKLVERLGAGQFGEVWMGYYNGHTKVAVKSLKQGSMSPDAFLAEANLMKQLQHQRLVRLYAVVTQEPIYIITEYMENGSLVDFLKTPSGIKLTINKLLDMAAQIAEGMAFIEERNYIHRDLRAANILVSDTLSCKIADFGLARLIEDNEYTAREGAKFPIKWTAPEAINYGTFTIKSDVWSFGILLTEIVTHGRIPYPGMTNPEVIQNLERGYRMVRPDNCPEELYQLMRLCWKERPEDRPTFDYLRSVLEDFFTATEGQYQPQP

What is called IC50 is the concentration that inhibits the measured activity by half. Regarding `CN1CCN(c2ccc3nc(-c4c(N)c5ccsc5[nH]c4=O)[nH]c3c2)CC1` [Example A1, 4-amino-5-(6-(4-methylpiperazin-1-yl)-1H-benzo[d]imidazol-2-yl)thieno[2,3-b]pyridin-6(7H)-one], the IC50 in assay [1] is 50 to 500 nM; in assay [3] it was ≤ 50 nM. The minimal effective concentration in assay [2] is > 3 µM.
